Assay results published in PubChem BioAssay (NCI).
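Results reflect a 48-hour exposure of cells in 96-well plates to compound at five concentrations. Here, GI50 denotes the concentration required for 50% inhibition of growth. TGI: concentration producing complete growth inhibition.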

Tests used:
Test in all cases: NCI anticancer screen, dose series, 48 h
[1] = tested on: 786-0 renal
[2] = tested on: A498 renal
[3] = tested on: A549 NSCLC
[4] = tested on: ACHN renal
[5] = tested on: BT-549 breast
[6] = tested on: CAKI-1 renal
[7] = tested on: CCRF-CEM leukemia
[8] = tested on: COLO 205 colon
[9] = tested on: DU-145 prostate
[10] = tested on: EKVX NSCLC
[11] = tested on: HCC-2998 colon
[12] = tested on: HCT-116 colon
[13] = tested on: HCT-15 colon
[14] = tested on: HL-60(TB) leukemia
[15] = tested on: HOP-62 NSCLC
[16] = tested on: HOP-92 NSCLC
[17] = tested on: HS 578T breast
[18] = tested on: HT29 colon
[19] = tested on: IGROV1 ovarian
[20] = tested on: K-562 leukemia
[21] = tested on: KM12 colon
[22] = tested on: LOX IMVI melanoma
[23] = tested on: M14 melanoma
[24] = tested on: MALME-3M melanoma
[25] = tested on: MCF7 breast
[26] = tested on: MDA-MB-231 breast
[27] = tested on: MDA-MB-435
[28] = tested on: MDA-MB-468 breast
[29] = tested on: MOLT-4 leukemia
[30] = tested on: NCI-H226 lung
[31] = tested on: NCI-H23 lung
[32] = tested on: NCI-H460 lung
[33] = tested on: NCI-H522 lung
[34] = tested on: OVCAR-3 ovarian
[35] = tested on: OVCAR-4 ovarian
[36] = tested on: OVCAR-5 ovarian
[37] = tested on: OVCAR-8 ovarian
[38] = tested on: PC-3 prostate
[39] = tested on: RPMI-8226 leukemia
[40] = tested on: RXF 393 renal
[41] = tested on: SF-268 CNS
[42] = tested on: SF-295 CNS
[43] = tested on: SF-539 CNS
[44] = tested on: SK-MEL-2 melanoma
[45] = tested on: SK-MEL-28 melanoma
[46] = tested on: SK-MEL-5 melanoma
[47] = tested on: SK-OV-3 ovarian
[48] = tested on: SN12C renal
[49] = tested on: SNB-19 CNS
[50] = tested on: SNB-75 CNS
[51] = tested on: SR leukemia
[52] = tested on: SW-620 colon
[53] = tested on: T-47D breast
[54] = tested on: TK-10 renal
[55] = tested on: U251 CNS
[56] = tested on: UACC-257 melanoma
[57] = tested on: UACC-62 melanoma
[58] = tested on: UO-31 renal

Question: What does the source list for `CN(C)c1ccnc(NCCCSC(c2ccccc2)(c2ccccc2)c2ccccc2)c1`?
Answer: GI50 [1]: 9.86 µM; TGI [1]: 25.8 µM; GI50 [2]: 14.9 µM; TGI [2]: 29 µM; GI50 [3]: 7.35 µM; TGI [3]: 21.6 µM; GI50 [4]: 8.67 µM; TGI [4]: 24.8 µM; GI50 [5]: 11.5 µM; TGI [5]: 25 µM; GI50 [6]: 7.48 µM; TGI [6]: 21 µM; GI50 [7]: 3.94 µM; TGI [7]: 17 µM; GI50 [8]: 1.87 µM; TGI [8]: 3.44 µM; GI50 [9]: 11 µM; TGI [9]: 23 µM; GI50 [10]: 14.2 µM; TGI [10]: 29.6 µM; GI50 [11]: 2.55 µM; TGI [11]: 7.13 µM; GI50 [12]: 3.97 µM; TGI [12]: 17 µM; GI50 [13]: 5.19 µM; TGI [13]: 19.6 µM; GI50 [14]: 3.06 µM; TGI [14]: 10.5 µM; GI50 [15]: 14.5 µM; TGI [15]: 29.2 µM; GI50 [16]: 3.3 µM; TGI [16]: 15.8 µM; GI50 [17]: 11.3 µM; TGI [17]: 35.3 µM; GI50 [18]: 3 µM; TGI [18]: 10.7 µM; GI50 [19]: 11.4 µM; TGI [19]: 27.9 µM; GI50 [20]: 2.88 µM; TGI [20]: 10.4 µM; GI50 [21]: 5.57 µM; TGI [21]: 17.8 µM; GI50 [22]: 2.96 µM; TGI [22]: 10.6 µM; GI50 [23]: 3.81 µM; TGI [23]: 13.3 µM; GI50 [24]: 1.55 µM; TGI [24]: 3.19 µM; GI50 [25]: 3.96 µM; TGI [25]: 16.6 µM; GI50 [26]: 5.71 µM; TGI [26]: 20.2 µM; GI50 [27]: 8.6 µM; TGI [27]: 20.9 µM; GI50 [28]: 2.01 µM; TGI [28]: 5.63 µM; GI50 [29]: 3.62 µM; TGI [29]: 15 µM; GI50 [30]: 10.9 µM; TGI [30]: 28.1 µM; GI50 [31]: 12.9 µM; TGI [31]: 26.3 µM; GI50 [32]: 4.85 µM; TGI [32]: 17.1 µM; GI50 [33]: 12 µM; TGI [33]: 26.6 µM; GI50 [34]: 7.26 µM; TGI [34]: 20.2 µM; GI50 [35]: 11.8 µM; TGI [35]: 29.8 µM; GI50 [36]: 11.9 µM; TGI [36]: 26 µM; GI50 [37]: 10.3 µM; TGI [37]: 28 µM; GI50 [38]: 4.41 µM; TGI [38]: 16.3 µM; GI50 [39]: 3.43 µM; TGI [39]: 12.3 µM; GI50 [40]: 2.58 µM; TGI [40]: 9.7 µM; GI50 [41]: 14.5 µM; TGI [41]: 30.5 µM; GI50 [42]: 11.4 µM; TGI [42]: 26.2 µM; GI50 [43]: 6.82 µM; TGI [43]: 21.9 µM; GI50 [44]: 16.6 µM; TGI [44]: 30.7 µM; GI50 [45]: 1.75 µM; TGI [45]: 3.74 µM; GI50 [46]: 3.93 µM; TGI [46]: 14.2 µM; GI50 [47]: 13.5 µM; TGI [47]: 26.8 µM; GI50 [48]: 11.1 µM; TGI [48]: 25.8 µM; GI50 [49]: 15.9 µM; TGI [49]: 31.5 µM; GI50 [50]: 11.9 µM; TGI [50]: 24.3 µM; GI50 [51]: 2.76 µM; TGI [51]: 7.84 µM; GI50 [52]: 4.42 µM; TGI [52]: 16.1 µM; GI50 [53]: 11.4 µM; TGI [53]: 29 µM; GI50 [54]: 12.4 µM; TGI [54]: 25.4 µM; GI50 [55]: 7.78 µM; TGI [55]: 21.7 µM; GI50 [56]: 3.07 µM; TGI [56]: 11.6 µM; GI50 [57]: 7.5 µM; TGI [57]: 21.6 µM; GI50 [58]: 5.4 µM; TGI [58]: 21.1 µM
